For orientation: Km means the concentration of substrate that gives half-maximal velocity.

Data set [1] relates to mouse pancreatic duct carcinoma cells. The experiment in a line: DRAQ7 exclusion, mouse pancreatic duct adenocarcinoma cells. Format: cell-based. The conditions noted are these: prolonged incubation, high micromolar concentrations, FIGS. 10 and 11. The method, then:
DRAQ7 is a far-red fluorescent DNA dye that stains the nuclei of dead and permeabilized cells. Unlike trypan blue, it can be combined with other commonly used fluorophores, such as Oregon Green 488 and Cy5. Healthy cells exclude the dye, and no increase in fluorescence is observed. […] When complexed with double stranded DNA, the dye has a maximum excitation wavelength of 643 nm and a maximum emission wavelength of 694 nm. Cells incubated with the promolecule or the activated peptide form of the promolecule in the presence or absence of thrombin (5 nM) were exposed to DRAQ7 (3 μM) for at least 10 minutes and then imaged using two different approaches. In the first approach, the cells were mouse pancreatic duct adenocarcinoma cells, the incubation buffer contained wheat germ agglutinin conjugated with Oregon Green 488, and the cells were visualized with a Nikon Eclipse Ti-E bearing the appropriate filters. In the second approach, mouse X3 fibroblast cells bearing a modified Histone 2A gene fused to green fluorescent protein (GFP) were imaged using an Acumen Ex3—a commercially available confocal microscopy instrument specifically designed for high throughput, content rich and highly multiplexed data applicable to a wide range of biological assays.

Another data set deals with MDA-MB-231 cells. The experiment in a line: Trypan blue dye exclusion, MDA-MB-231 cells. Conditions: 1 hour, 37° C. It counts as cell-based. The method, then: (§1) To examine the interaction of the promolecule and its activated form with cell membranes rather than artificial membranes, the promolecules were incubated with cells of the breast cancer cell line MDA-MB-231 (approximately 100,000 cells in a volume of […]) for 1 hour at 37° C. in Dulbecco's modified Eagle medium containing 1% fetal bovine serum, and cell viability was assessed using Trypan blue dye exclusion.

The target of the next data set is T1, matriptase (Homo sapiens, UniProt Q9Y5Y6).
T1 sequence (Q9Y5Y6 615-855 limits assumed): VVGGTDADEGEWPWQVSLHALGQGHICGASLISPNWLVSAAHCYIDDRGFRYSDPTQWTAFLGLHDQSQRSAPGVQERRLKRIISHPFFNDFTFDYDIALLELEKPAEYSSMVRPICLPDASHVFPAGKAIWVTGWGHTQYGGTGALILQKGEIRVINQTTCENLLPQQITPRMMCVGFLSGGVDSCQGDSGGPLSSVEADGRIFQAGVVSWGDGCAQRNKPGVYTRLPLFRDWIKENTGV
The experiment in a line: Selective activation in MDA-MB-231 cells, trypan blue, matriptase. It counts as cell-based. The conditions noted are these: exogenous addition of different proteases. The method, then: as §1
(§2) Cy5 fluorescent dye was conjugated to this promolecule via an N-terminal thiol (module X^1a) to create a promolecule having the structure X^1a-A-X^2—Z, and its interaction with HT29 cells was analyzed using fluorescence microscopy. In this experiment, cells were grown to confluence on glass bottom microwell dishes and the peptide (10 uM) incubated with the cells for between one to three hours and then washed for staining with fluorescently-labeled wheat germ agglutinin. After such staining the cells were covered in typical cell culture media and allowed to grow overnight for another round of imaging.

The test system of a further data set is HT29 cells. The experiment in a line: Fluorescence microscopy of HT29 cells. Format: cell-based. The method, then:
as §2

Data set [2] in a line: Intrinsic tryptophan fluorescence with liposomes or detergent micelles. It counts as binding. An excerpt:
Intrinsic fluorescence was used to characterize promolecules containing one or more tryptophan residues in portion A. As the spectral properties of tryptophan are dependent upon its local environment, this provides unequivocal definition of its partitioning into phospholipid membranes. In aqueous conditions, tryptophan typically emits light near 355 nm when excited with 285 nm light. In contrast, the emitted light is […] or lowered when the tryptophan of the peptide is present in an apolar environment, such as the interior of a phospholipid membrane, and produces a maximum emission wavelength typically in the range of 325 to 345 nm. Both the magnitude and wavelength of light emitted under this fluorescence assay are influenced by the properties of the peptide and the composition of the phospholipid membrane. […] A typical assay employed an 8 μM solution of promolecules and liposomes of defined size (100 nm in diameter, 0.5 mM) composed of phosphatidylserine or phosphatidylcholine or a combination thereof to test the influence of negatively charged or zwitterionic surfaces. […] Time-dependent measurement of the fluorescence emission spectra was used to characterize the activation of the promolecules by thrombin (2 nM) or by other proteases (10 nM or higher).

In a further data set the target is thrombin (Homo sapiens, UniProt P00734). The experiment in a line: Thrombin-mediated proteolysis by reverse phase HPLC. Format: biochemical. Conditions: digestion by thrombin, Michaelis-Menten. The method, then:
Thrombin-mediated proteolysis of promolecules was performed by incubating the enzyme at concentrations ranging from 0.1 to 2 nM with a 20 to 100 μM solution of the promolecule at 37° C. for up to three or a full twenty-four hours to ensure completeness. The extent of proteolysis was assessed by reverse phase high-pressure liquid chromatography. Samples were run over a C18 column using an acetonitrile gradient of 20% to 80% over a period of 30 minutes. Complete hydrolysis was evident by the absence of the initial peak corresponding to the promolecule, and was further validated using mass spectrometry.

The nature of data set [3]: Förster resonance energy transfer (FRET) to fluorescent liposomes. It counts as binding. Conditions: 100 nm liposomes, entirely PS. The method, then: Förster resonance energy transfer (FRET) relies upon the ability of light to be exchanged from one fluorescent moiety to another, which becomes possible only when the moieties are in close proximity to one another, typically less than about 30 Angstroms. Liposomes having similar composition to that used in the intrinsic fluorescence assays were prepared with 1% DiO, a lipid-soluble fluorescent compound whose fluorescence emission characteristics match the excitation wavelength of the promolecule when conjugated to […]. DiO-containing liposomes (1 μM) were mixed with Cy5 containing promolecules or activated peptide portions (20 nM), and the spectral characteristics of the mixture were determined. Cy3 was excited with 545 nm light, and the emission of Cy5 was measured over 650 to 700 nm. The activated peptide portions, but not the promolecules, enabled fluorescence energy transfer, which confirmed the observations made using intrinsic fluorescence.

Data set [4] concerns blood clots formed in vitro. The experiment in a line: Blood clots formed on glass slides. On the set-up: species or system bovine. Conditions: for accumulation on actively clotting platelets / localization to blood clots: clots on glass slides, fluorescence microscopy; for accumulation on red blood cells: without activation. The method, then:
Whole bovine blood was mixed at a ratio of 5:1 with a 10 nM solution of promolecules bearing the fluorescent dye Cy5. The mixture was then added to 1 uL of activated coagulation factor Xa (10 nM) and calcium chloride (10 mM) to initiate clot formation on the surface of a conventional microscopy slide. The mixture was then stirred with the tip of a plastic pipette for four minutes until a clot was formed. The clot was then pulled gently across the slide with the goal of flattening out the clot for better imaging. A coverslip was then placed on top of the slide and held in place by dabbing the corners with adhesive. The slide was then imaged within a few hours using an epifluorescence microscope (Nikon Eclipse Ti-E) bearing the appropriate filters for detection of the Cy5 dye.

Data set [5] deals with enteropeptidase or thrombin activity. The experiment in a line: Fluorescence imaging in a subject, promolecule activated by either of two enzymes. Format: in vivo. Conditions: administered to a subject. The method, then: In order to activate this promolecule, either X^2a or X^2b must be cleaved, so that this promolecule is activated by either thrombin or enteropeptidase activity. The molecule is administered to a subject, and is cleaved in areas having enteropeptidase or thrombin activity, causing portion A to separate from portion Z and interact with membranes in the vicinity.

The conditions of data set [6]: in vivo.
Protocol: In order to extend the circulating half-life of the promolecule, it is covalently linked to a molecule of polyethylene glycol (PEG) having a moleculer weight of 1,000 Daltons. The PEG-modified promolecule is administered to a subject and the circulating half-life is measured.

Entries after “also recorded” stand apart in the source; their conditions may differ. Where no end group is shown, it is not given here. Cy3 = cyanine3 fluorescent dye; Cy5 = cyanine5 fluorescent dye

For “FVQWFSKFLGKLLPRSFLLQDPNDQYEPFW [SEQ ID NO: 47]”, the “peptide-to-cell ratio at which cells did not exclude trypan blue or DRAQ7 (no longer viable)” value in data set [1] is on record as “greater than 10^9 to one”.

Consider “(Cy5)FVQWFSKFLGKLLKSRAEDEGLYDDD (Cy5-FVQWFSKFLGKLLKSRAEDEGLYDDD; not fully specified; printed as (Cy5)FVQWFSKFLGKLLKSRAEDEGLYDDD) [SEQ ID NO: 49, matriptase-cleavable promolecule; tested as A-X^2—Z and with Cy5 via N-terminal thiol]”, for which the “toxicity / cell death, trypan blue dye uptake” value in the data set on MDA-MB-231 cells is “Limited toxicity; also recorded: low toxicity; also recorded: did not”. The “activation by matriptase (diminished trypan blue dye exclusion)” value with matriptase is given as “selectively activated by matriptase”. Further, the “fluorescent signal on cell surface” value in the data set with HT29 cells (Cy5-conjugated promolecule, after co-incubation) is reported as “accumulated on the surface of the HT29 cells; also recorded: detectable on the surface of cells”. Further, the internalization into cells entry in the data set with HT29 cells (after washing and further incubation (24 hours)) is on record as “internalized into the cells; also recorded: localized in punctate spheres inside the cells”. Moreover, the “maximum emission wavelength / spectral properties, intrinsic tryptophan fluorescence” value in data set [2] (in presence of PC or PS liposomes or detergent micelles compared to buffer alone (PBS)) is given as “undergo a limited change”. In data set [2] (promolecule A-X^2—Z before activation), the “interaction with phospholipid membranes, intrinsic fluorescence” value is given as “moderate restricted interaction with phospholipid membranes”.

As for “(Cy3-K)ILGTILGLLKGLPRSFLLRNPNDKYEPFW (Cy3-KILGTILGLLKGLPRSFLLRNPNDKYEPFW; also: Cy3 conjugated to N-terminal Lys, attachment site not given here) [SEQ ID NO: 48, thrombin-cleavable promolecule with protonectin as portion A, Cy3 on N-terminal lysine]”, in the data set with thrombin, the Km came to 0.2 µM. Besides, in data set [3], the “FRET to DiO liposomes composed of phosphatidylserine (PS)” value is “do not associate closely enough with the PS liposomes to enable FRET”. Further, in [4], the “accumulation on actively clotting platelets / localization to blood clots” value is listed as “intense accumulation of the active form of the promolecule; also recorded: localization of membrane-interacting peptide-containing cleavage products in blood clots” and the “accumulation on red blood cells” value was “did not accumulate on red blood cells”.

Regarding “Cy5-CFVQWFSKFLGKLLPRSFLLQDPNDQYEPFW [SEQ ID NO: 52]”, in data set [4], the “accumulation on actively clotting platelets / localization to blood clots” value is on record as “intense accumulation of the activated peptide form of the promolecule; also recorded: localization of the membrane-interacting peptide-containing cleavage product to blood clots” and the “accumulation on red blood cells” value is given as “did not accumulate on red blood cells”.

For “(Cy5)CFFWLSKIFPRDDDDKDD (Cy5-CFFWLSKIFPRDDDDKDD) [SEQ ID NO: 53]”, the “detection of Cy5 dye by fluorescence microscopy” value in data set [5] is “the Cy5 dye is detected in areas having enteropeptidase or thrombin activity”.

With “PEG-modified promolecule: SEQ ID NO: 52 covalently linked to polyethylene glycol of 1,000 Daltons (CFVQWFSKFLGKLLPRSFLLQDPNDQYEPFW; not fully specified (residue 1, N-terminus); printed as Cy5-CFVQWFSKFLGKLLPRSFLLQDPNDQYEPFW; also: PEG 1000 Da attached, site not given here)”, the “circulating half-life versus non-PEG-modified form” value in data set [6] is given as “longer circulating half-life than the non-PEG-modified form”.

The values are drawn from patent US11712483B2, “Activatable membrane-interacting peptides and methods of use” (priority 2013, dated 2023).
